Experimental data as given in US20070155827A1, “USE OF BENZO-FUSED HETEROCYCLE SULFAMIDE DERIVATIVES FOR THE TREATMENT OF DEPRESSION” (priority 2005, published 2007).
Entries after “also recorded” stand apart in the source; their conditions may differ. Like-named read-outs stand apart in the source and are kept apart here.

Key:
CH3/HeJ mice = assay: Mouse Tail Suspension Assay (Acute), TST; format: in vivo; settings: p.o.; for ED50: Mus musculus, po, 7 min, 7-min session
Method: In the tail suspension test (TST) for evaluating compounds for anti-depressant activity, mice are suspended by their tails to a metal or plastic rod using clip or scotch tape. The test is usually quite short, 5-7 min, and the amount of time the mice spend immobile is recorded either manually or with an automated device. Agents which have antidepressant activity, decrease the duration of immobility of mice in this test.
The basic apparatus for the tail suspension assay consisted of a yellow plastic chamber (91×45×10 cm) divided for four arenas 25, 20, 20 and 25 cm wide separated by yellow plastic walls 0.75 cm thick. Mice were suspended by their tails using a rubber clip (7 cm long) attached to the plastic rod that was placed on the top of a testing chamber half way through its deep dimension. Each experimental session was videotaped and analyzed for four animals in the real time by computer software (“Depression Scan” Clever Sys Inc.). The computer justification of immobility was calibrated with the use of animals dosed with lorazepam while justification of movement was calibrated with the high dose of desipramine treated animals. Control, vehicle treated animals and animals treated with Compound #8 were analyzed under the calibrated settings. The settings were adjusted separately for dark (CH3/HeJ and C57Bl/6J strains) and white mice (Balb/cJ and A/J strains). A yellow background was used for dark mice and a blue background was used to record movements of white mice.
The ability of a test compound to decrease the duration of immobility, or increase mobility was measured using the TST procedure described above. Acute treatment with clinically effective antidepressants and/or novel compounds that have potential antidepressant properties decrease the duration of immobility and at the same time increases mobility in the TST.
Data were analyzed using GraphPad Prism software (GraphPad Software, Inc. San Diego, Calif.). For the comparison of the effect of different doses for various drugs on immobility in the TST one-way analyses of variance (ANOVA) were used followed by Dunnett's multiple comparison test. […] The ED50 and Emax values were compared using two-way ANOVA and Bonferroni post-hoc test.
Positive controls included duloxetine (DLX), venlafaxine (VLX)and desipramine (DMI) which were dissolved in 0.5% methylcellulose and lorazepam (LOR) which was suspended in 0.5% of methylcellulose in water by sonication. All drugs and vehicles were administered orally (p.o.) by gavage in a volume of 10 mL/kg.
The mice were ordered 5 weeks old and at the beginning of experiment their weight was 20±5 g. Animals were housed in groups of four in plastic cages at an ambient temperature of 21° C. to 23° C. with an automated 12/12 hours light/dark cycle and access to water and a commercial rodent food ad libitum.
Each experiment consisted of seven treatment groups with four animals per group. A total of 28 animals per experiment were used. Every two consecutive experiments (1 & 2, 3 & 4, 5 & 6 and 7 & 8) were exact replicas of each other. […] One treatment group of four animals in each experiment was a vehicle treated group. In addition to the vehicle treated group, the effects of DMI at 6 mg/kg, 12 mg/kg, 30 mg/kg, 60 mg/kg and 120 mg/kg and LOR at 5 mg/kg were tested in experiments 1 and 2. […] In experiments 5 and 6 the effects of DLX at 6 mg/kg, 12 mg/kg, 30 mg/kg, 60 mg/kg, 120 mg/kg and LOR at 5 mg/kg were tested. […]

Male Sprague Dawley rats = assay: Forced Swim Test (Acute), FST; format: in vivo; settings: p.o.
Method: The Forced Swim test (FST) is a commonly used procedure to screen compounds for possible antidepressant properties. This test is also known as the behavioral despair test. Rodents placed in […] tanks filled with water present a wide variety of escape or immobility behaviors. Antidepressant drugs from different classes markedly increase escape behaviors and/or decrease latency or duration of immobility.
Venlafaxine and desipramine were dissolved in water. All drugs and their vehicles were administered orally (p.o.) by gavage in a volume of 5 mL/kg.
Male Sprague Dawley rats (140 to 160 g) from Charles River Laboratories Wilmington, Mass. were used. The animals went through a five-day quarantine period before being subjected to the experimental procedure.
Animals were housed in groups of four in plastic cages at an ambient temperature of 21° C. to 23° C. with an automated 12 hour light/dark cycle and access to water and commercial rodent food ad libitum. Animals were not handled more than for the routine bedding change prior to pre-test swim session.
Each experiment consisted of seven treatment groups with n=4 animals per group. A total of 28 animals per experiment were used. Two consecutive experiments (1 and 2, 3 and 4, and 5 and 6) were exact replicas of each other. […] One treatment group of n=4 animals in each experiment was a vehicle treated group. […] In experiments 5 and 6 the effects of venlafaxine and maprotyline at 12 mg/kg, 30 mg/kg, and 60 mg/kg were tested.
The basic apparatus consisted of a cylinder (46 cm tall×˜20 cm diameter) filled with water to 30 cm deep, at a temperature of 25±1° C. The automated version of the FST was used to perform the experiments. Plumbing for automatic filling and emptying water connected the four cylinders. Cylinders were placed in the dividing chambers 25 cm wide to separate animals visually. Each 5-minute experimental session was videotaped and analyzed in real time by computer software (Clever Systems, Inc.) for four animals at a time. The immobility, swimming, climbing and escape times were recorded by the software. The four activities are defined as follow. Immobility: the animal floats motionlessly or makes only those movements necessary to keep its head above water; Climb: the animal vigorously moves vertically while scratching the wall around the cylinder; Swim: the animal moves horizontally around in the cylinder more than necessary to keep its head above water; and Escape: sum of all vigorous active movements.
The ability of a test compound to decrease the duration or frequency of immobility, or changes in swimming, climbing and escape times, was measured using the FST procedure described above. […] The analysis of the results in the studies described was focused on the immobility time during 5-minute test session.
There were two swim sessions in each experiment. First, a pre-test swim session for 15 minutes was performed. Following 48 hours later was a test session of 5-minute duration. Upon completion of a swim session, each animal was placed under a heat lamp in a cage with soft bedding for approximately 15 minutes to prevent hypothermia.
Animals were pre-treated with a vehicle or test compound after completing the pre-test swim session, then 24 hours later and then shortly prior to the 5-minute test session; i.e., three injections were given to each animal between the two swim sessions that occurred on 3 consecutive days.
Data were analyzed using GraphPad Prism software (GraphPad Software, Inc. San Diego, Calif.). For the comparison of the effect of different doses for various drugs on immobility in the FST one-way ANOVA was used followed by Dunnett's multiple comparison test. […] The ED50 and Emax values were statistically compared using two-tail t-test.

Question: Which ED50 (CH3/HeJ mice; read-out: Immobility ED50) does the source give for NS(=O)(=O)NC[C@H]1COc2cc(Cl)ccc2O1 [Compound #8, (2S)-(−)-N-(6-Chloro-2,3-dihydro-benzo[1,4]dioxin-2-ylmethyl)-sulfamide] here?
Answer: Its ED50 is 5.6 mg/kg.

Question: And the ED50 (CH3/HeJ mice; read-out: Mobility ED50)?
Answer: The ED50 was 3.6 ± 2.9 mg/kg.

Question: What about the “effect on immobility and mobility time in TST” value (CH3/HeJ mice; 7-min testing session) of the same compound?
Answer: Its value is “decreased immobility time and increased mobility time; also recorded: antidepressant-like activity”.

Question: What about the ED50 (Male Sprague Dawley rats; Rattus norvegicus, po, 5 min, three administrations, 5-minute test session, read-out: ED50 (immobility)) of the same compound?
Answer: The ED50 was 5.6 ± 0.6 mg/kg.

Question: And the “effect in the FST (immobility time)” value (Male Sprague Dawley rats; 5-minute testing session)?
Answer: Its value is “antidepressant-like activity in the FST”.

Question: What about the “Emax (immobility)” value (Male Sprague Dawley rats; immobility) of the same compound?
Answer: Its value is 67.0 ± 11.6 s.
